Experimental data reported in PubChem BioAssay (NCI).
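Briefly, cells in 96-well plates were exposed to five compound concentrations for 48 h, and endpoints were estimated by linear interpolation. GI50: concentration for 50% inhibition of growth. The concentration for full growth arrest is given as TGI.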

Legend:
Test in all cases: NCI tumour cell line growth inhibition, 48 h
A498 renal = system: A498 renal
ACHN renal = system: ACHN renal
HCT-116 colon = system: HCT-116 colon
HOP-92 NSCLC = system: HOP-92 NSCLC
NCI-H226 lung = system: NCI-H226 lung
NCI-H23 lung = system: NCI-H23 lung
NCI-H460 lung = system: NCI-H460 lung
OVCAR-5 ovarian = system: OVCAR-5 ovarian
RPMI-8226 leukemia = system: RPMI-8226 leukemia
SNB-75 CNS = system: SNB-75 CNS

Row | SMILES | GI50 (A498 renal) [µM] | TGI (A498 renal) [µM] | GI50 (ACHN renal) [µM] | TGI (ACHN renal) [µM] | GI50 (HCT-116 colon) [µM] | TGI (HCT-116 colon) [µM] | GI50 (HOP-92 NSCLC) [µM] | TGI (HOP-92 NSCLC) [µM] | GI50 (NCI-H226 lung) [µM] | TGI (NCI-H226 lung) [µM] | GI50 (NCI-H23 lung) [µM] | TGI (NCI-H23 lung) [µM] | GI50 (NCI-H460 lung) [µM] | TGI (NCI-H460 lung) [µM] | GI50 (OVCAR-5 ovarian) [µM] | TGI (OVCAR-5 ovarian) [µM] | GI50 (RPMI-8226 leukemia) [µM] | TGI (RPMI-8226 leukemia) [µM] | GI50 (SNB-75 CNS) [µM] | TGI (SNB-75 CNS) [µM]
1 | CC/C=C\C[C@H](O)C/C=C1/C(=O)C=C[C@@H]1C/C=C\CCCC(N)=O | 2.9 | 7.07 | 1.64 | 3.35 | 1.02 | 2.47 | 3.15 | 6.74 | 2.34 | 5.48 | 2.13 | 5.27 | 2.27 | 6.97 | 3.89 | 11.8 | 1.14 | 5.24 | 10.5 | 22.3
2 | CC(SC1=CC(=O)c2c(O)ccc(O)c2C1=O)C(=O)O (centres undefined) |  | > 100 |  | > 64.1 |  | > 72.3 |  | > 83.1 |  | > 100 |  | > 90.4 |  | > 100 |  | > 100 |  | > 96.2 |  | > 75.9
3 | CC(=O)O/C(C)=C\C(=O)O/N=C(\N)c1ccc(C)cc1 |  | > 100 |  | > 100 |  | 43.1 |  | > 100 |  | 92.9 |  | 48.4 |  | > 100 |  | > 100 |  | > 100 |  | 61
4 | Cc1cc(O)cc(C)c1/C=C/c1cncc(C(=O)N(C)C)c1 | > 25 | > 25 | > 25 | > 25 | > 25 | > 25 | > 25 | > 25 | > 25 | > 25 | > 25 | > 25 | > 25 | > 25 | > 25 | > 25 | > 25 | > 25 | > 13.7 | > 25
5 | COc1cccc2c1C1=CC(=O)CCC1C(C)(C)O2 (centres undefined) |  | > 100 |  | > 100 |  | > 100 |  | > 100 |  | > 100 |  | > 100 |  | > 100 |  | > 100 |  | 50.4 |  | > 100
6 | CC1(C)C(=O)/C(=C\c2ccco2)C[C@]2(C)[C@H]3CC=C4[C@@H]5C[C@](C)(C(=O)O)CC[C@]5(C)CC[C@@]4(C)[C@]3(C)CC[C@@H]12 | 10.3 | 22.4 | 6.9 | 21.1 | 7.27 | 26.1 | 3.83 | 17 | 9.92 | 37 | 8.89 | 25.4 | 5.45 | 20.9 | 15.6 | 32.2 | 4.2 | 47.9 | 24.6 | > 100
7 | Nc1ncnc2c1ncn2C1OC(C(=O)O)C(O)C1O (centres undefined) |  | > 100 |  | > 100 |  | > 100 |  | > 100 |  | > 100 |  | > 100 |  | > 100 |  | > 100 |  | > 100 |  | > 100
8 | CCOC(=O)/C=C(/CN1C(=O)c2ccccc2C1=O)c1ccccc1 |  | > 100 |  | > 100 |  | > 100 |  | > 100 |  | > 100 |  | > 100 |  | > 100 |  | > 100 |  | > 100 |  | > 100
9 | NC(=O)c1ccccc1NC(=O)C(=O)C(c1cnc2ccc([N+](=O)[O-])cc2n1)[N+](=O)[O-] (centres undefined) |  | > 100 |  | > 100 |  | > 100 |  | > 100 |  | > 100 |  | > 100 |  | > 100 |  | > 100 |  | > 100 |  | > 100
10 | O=c1oc2c3ccc4ccccc4c3n(Cc3nc4ccccc4[nH]3)c2c2ccccc12 |  | > 100 |  | > 100 |  | > 100 |  | > 100 |  | > 100 |  | > 100 |  | > 100 |  | > 100 |  | > 100 |  | > 87.7
11 | OCC1OC(N2C=C(c3nc4ccccc4s3)C3C=CC=CC32)C(O)C1O (centres undefined) | 7.91 | 17.7 | 4.36 | 12.4 | 5.21 | > 50 | 6.62 | 20.5 | 8.81 | 25.5 | 8.89 | 28.7 | 9.91 | > 50 | 11.3 | 32.7 | 7.57 | 21.8 | 7.8 | 26
12 | CCC(=O)N1C/C(=C/c2ccc(OC)cc2)C(=O)/C(=C/c2ccc(OC)cc2)C1 | 1.92 | 3.51 | 1.8 | 3.43 | 0.263 | 0.646 | 2.11 | 7.77 | 22.3 | > 100 | 2.26 | 5.39 | 2.05 | 4.48 | 1.86 | 3.75 | 0.231 | 0.748 | 5.91 | > 100
13 | Cc1ccc(-c2cc3nc(-c4ccccc4)nc(C(Cl)Cl)n3n2)cc1 | 0.672 | 1.39 | 0.737 | 1.41 | 0.689 | 1.61 | 0.725 | 1.62 | > 50 | > 50 | 1.95 | > 50 | 0.45 | 1.42 | 1.19 | 3.31 | 0.802 | 3.45 | 0.295 | 1.04
14 | O=C(N/N=C/c1ccc(F)cc1)c1[nH]c2ccc(I)cc2c1-c1ccccc1 | 0.409 |  | 0.719 | > 100 | 0.325 | 1.35 | 12.5 | > 92.3 | 2.24 | > 66.8 | 0.551 | > 25.1 | 0.399 | 5.04 | 3.49 | > 100 | 0.191 | 0.639 | 0.327 | 39.3
15 | CCCCc1cc(O)ccc1O | > 100 | > 100 | 15.6 | 28.9 | 15.5 | 28.9 | 26.1 | > 100 | 48.8 | > 100 | 67.1 | > 100 | 39 | > 100 | 30 | > 100 | 3.13 | 26.6 | 14.1 | > 100
